The text below walks through data of US10206394B2, “Herbicidal compounds” (Syngenta Participations AG, priority 2014, dated 2019).

Where two headings read alike, the source gives them in different places.

Holding throughout (test): Glasshouse assay for herbicidal activity (pre- and post-emergence), percentage phytotoxicity
Format in all cases: in vivo

The subject of experiment [1] is Alopecurus myosuroides (ALOMY). The following applies: Alopecurus myosuroides. Summed up:
(§1)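 Visual phytotoxicity score, 0% = undamaged to 100% = total kill, read 20 days after treatment for PRE and 15 days for POST. Pots of standard soil; treatment at day 1 (PRE) or roughly day 12 (POST). Glasshouse: 16 h photoperiod, 65% RH, 24/18 or 20/16 °C by climate type.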

The test system of experiment [2] is Echinochloa crus-galli (ECHCG). As to conditions: Echinochloa crus-galli. The procedure, abridged:
as §1

For experiment [3], the system named is Avena fatua (AVEFA). As to conditions: Avena fatua. The procedure, abridged: as §1
Experiment [4] deals with Lolium perenne (LOLPE). As to conditions: Lolium perenne. Summed up:
as §1

The mark [5] stands for this setting: post-emergence, 360 h, POST-emergence, rate 250 g/ha, visual score 15 DAA (100%=total damage, 0%=no damage), read-out: Post-emergence herbicidal activity (percentage phytotoxicity) ALOMY POST.
Setting [6] is: pre-emergence, 480 h, PRE-emergence, rate 250 g/ha, visual score 20 DAA (100%=total damage, 0%=no damage), read-out: Pre-emergence herbicidal activity (percentage phytotoxicity) ALOMY PRE.
Setting [7] is: post-emergence, 360 h, POST-emergence, rate 250 g/ha, visual score 15 DAA (100%=total damage, 0%=no damage), read-out: Post-emergence herbicidal activity (percentage phytotoxicity) ECHCG POST.
Where [8] appears, read: pre-emergence, 480 h, PRE-emergence, rate 250 g/ha, visual score 20 DAA (100%=total damage, 0%=no damage), read-out: Pre-emergence herbicidal activity (percentage phytotoxicity) ECHCG PRE.
The mark [9] stands for this setting: post-emergence, 360 h, POST-emergence, rate 250 g/ha, visual score 15 DAA (100%=total damage, 0%=no damage), read-out: Post-emergence herbicidal activity (percentage phytotoxicity) AVEFA POST.
[10] abbreviates: pre-emergence, 480 h, PRE-emergence, rate 250 g/ha, visual score 20 DAA (100%=total damage, 0%=no damage), read-out: Pre-emergence herbicidal activity (percentage phytotoxicity) AVEFA PRE.
[11] abbreviates: post-emergence, 360 h, POST-emergence, rate 250 g/ha, visual score 15 DAA (100%=total damage, 0%=no damage), read-out: Post-emergence herbicidal activity (percentage phytotoxicity) LOLPE POST.
The mark [12] stands for this setting: pre-emergence, 480 h, PRE-emergence, rate 250 g/ha, visual score 20 DAA (100%=total damage, 0%=no damage), read-out: Pre-emergence herbicidal activity (percentage phytotoxicity) LOLPE PRE.
The mark [13] stands for this setting: post-emergence, 360 h, Rate 250 g/ha, post-emergence, assessed visually 15 DAA, 100%=total damage, 0%=no damage, read-out: Post-emergence herbicidal activity (percentage phytotoxicity) ALOMY POST.
The mark [14] stands for this setting: pre-emergence, 480 h, Rate 250 g/ha, pre-emergence, assessed visually 20 DAA, 100%=total damage, 0%=no damage, read-out: Pre-emergence herbicidal activity (percentage phytotoxicity) ALOMY PRE.
The mark [15] stands for this setting: post-emergence, 360 h, Rate 250 g/ha, post-emergence, assessed visually 15 DAA, 100%=total damage, 0%=no damage, read-out: Post-emergence herbicidal activity (percentage phytotoxicity) ECHCG POST.
Where [16] appears, read: pre-emergence, 480 h, Rate 250 g/ha, pre-emergence, assessed visually 20 DAA, 100%=total damage, 0%=no damage, read-out: Pre-emergence herbicidal activity (percentage phytotoxicity) ECHCG PRE.
The mark [17] stands for this setting: post-emergence, 360 h, Rate 250 g/ha, post-emergence, assessed visually 15 DAA, 100%=total damage, 0%=no damage, read-out: Post-emergence herbicidal activity (percentage phytotoxicity) AVEFA POST.
The mark [18] stands for this setting: pre-emergence, 480 h, Rate 250 g/ha, pre-emergence, assessed visually 20 DAA, 100%=total damage, 0%=no damage, read-out: Pre-emergence herbicidal activity (percentage phytotoxicity) AVEFA PRE.
The mark [19] stands for this setting: post-emergence, 360 h, Rate 250 g/ha, post-emergence, assessed visually 15 DAA, 100%=total damage, 0%=no damage, read-out: Post-emergence herbicidal activity (percentage phytotoxicity) LOLPE POST.
Where [20] appears, read: pre-emergence, 480 h, Rate 250 g/ha, pre-emergence, assessed visually 20 DAA, 100%=total damage, 0%=no damage, read-out: Pre-emergence herbicidal activity (percentage phytotoxicity) LOLPE PRE.

Consider `C/C=C/c1cc(C)c(C2C(=O)CC(CC(=O)NCc3ccc(C#N)cc3)C2=O)c(C)c1` (stereo not drawn) [Compound B244], for which the pest or weed control at 250 g/ha in experiment [1] (setting [5]) was 0%; in experiment [1] (setting [6]), 0%; in experiment [2] (setting [7]) it was 90%; in experiment [2] (setting [8]), 0%; in experiment [3] (setting [9]), 80%; in experiment [3] (setting [10]), 0%. In addition, the pest or weed control at 250 g/ha in experiment [4] (setting [11]) is 60%; in experiment [4] (setting [12]), 0%.

As to `Cc1cc(Br)cc(C)c1C1C(=O)CC(CC(=O)NC/C=C/Cl)C1=O` (stereo not drawn) [Compound B176], the pest or weed control at 250 g/ha in experiment [1] (setting [5]) was 80%; in experiment [1] (setting [6]) it was 90%; in experiment [2] (setting [7]), 80%; in experiment [2] (setting [8]), 80%; in experiment [3] (setting [9]) it was 80%; in experiment [3] (setting [10]), 60%. The results for the pest or weed control at 250 g/ha in experiment [4] (setting [11]) and in experiment [4] (setting [12]) were 80% and 90%, respectively.

Consider `C#CCN(C)C(=O)CC1CC(=O)C(c2c(C)cc(OCC(F)(F)F)cc2C)C1=O` (stereo not drawn) [Compound B213], for which the pest or weed control at 250 g/ha in experiment [1] (setting [5]) was 90%; in experiment [1] (setting [6]), 80%; in experiment [2] (setting [7]), 100%; in experiment [2] (setting [8]), 90%; in experiment [3] (setting [9]), 90%; in experiment [3] (setting [10]), 50%. Besides, the pest or weed control at 250 g/ha came out at 90% in experiment [4] (setting [11]) and 70% in experiment [4] (setting [12]).

Regarding `CCc1cc(C)cc(C)c1C1C(=O)CC(CC(=O)NCC2CC2)C1=O` (stereo not drawn) [Compound B257], the pest or weed control at 250 g/ha in experiment [1] (setting [5]) came out at 100%; in experiment [1] (setting [6]), 100%; in experiment [2] (setting [7]), 100%; in experiment [2] (setting [8]) it was 100%; in experiment [3] (setting [9]), 100%; in experiment [3] (setting [10]) it was 90%. Further, the pest or weed control at 250 g/ha in experiment [4] (setting [11]) and in experiment [4] (setting [12]) was 100% throughout.

With `C/C=C/c1cc(C)c(C2C(=O)CC(CC(=O)NCc3cccc(F)c3)C2=O)c(C)c1` (stereo not drawn) [Compound B242], the pest or weed control at 250 g/ha is 90% in experiment [1] (setting [5]); 0% in experiment [1] (setting [6]); 100% in experiment [2] (setting [7]); 0% in experiment [2] (setting [8]); 90% in experiment [3] (setting [9]); 0% in experiment [3] (setting [10]). The pest or weed control at 250 g/ha in experiment [4] (setting [11]) came to 100%; in experiment [4] (setting [12]), 0%.

Turning to `Cc1cc(-c2ncc(Cl)cc2F)cc(C)c1C1C(=O)CC(CC(=O)NCc2ccc(Cl)nc2)C1=O` (stereo not drawn) [Compound A116], the pest or weed control at 250 g/ha came out at 90% in experiment [1] (setting [13]); 80% in experiment [1] (setting [14]); 100% in experiment [2] (setting [15]); 100% in experiment [2] (setting [16]); 100% in experiment [3] (setting [17]); 90% in experiment [3] (setting [18]). Moreover, the pest or weed control at 250 g/ha was 100% in experiment [4] (setting [19]) and 80% in experiment [4] (setting [20]).

For the compound `Cc1cc(C)c(C2C(=O)CC(CC(=O)NCc3ccoc3)C2=O)c(C)c1` (stereo not drawn) [Compound A99], the pest or weed control at 250 g/ha in experiment [1] (setting [13]) came to 60%; in experiment [1] (setting [14]), 20%; in experiment [2] (setting [15]), 0%; in experiment [2] (setting [16]), 0%; in experiment [3] (setting [17]), 30%; in experiment [3] (setting [18]), 0%. Besides, the pest or weed control at 250 g/ha in experiment [4] (setting [19]) stood at 70%; in experiment [4] (setting [20]), 20%.

Take `CCc1cc(OCC(F)(F)F)cc(C)c1C1C(=O)CC(CC(=O)NCc2ccc(C#N)cc2)C1=O` (stereo not drawn) [Compound B216]: the pest or weed control at 250 g/ha stood at 100% in experiment [1] (setting [5]); 80% in experiment [1] (setting [6]); 100% in experiment [2] (setting [7]); 90% in experiment [2] (setting [8]); 90% in experiment [3] (setting [9]); 70% in experiment [3] (setting [10]). Besides, the pest or weed control at 250 g/ha in experiment [4] (setting [11]) stood at 90%; in experiment [4] (setting [12]), 70%.

`Cc1cc(-c2ccc(F)cc2)cc(C)c1C1C(=O)CC(CC(=O)NC(C)(C)C#N)C1=O` (stereo not drawn) [Compound B377]: the pest or weed control at 250 g/ha in experiment [1] (post-emergence, 360 h, Rate 250 g/ha, post-emergence, visual assessment 15 DAA, 100%=total damage, 0%=no damage, read-out: Post-emergence herbicidal activity (percentage phytotoxicity) ALOMY POST) stood at 90%; in experiment [1] (pre-emergence, 480 h, Rate 250 g/ha, pre-emergence, visual assessment 20 DAA, 100%=total damage, 0%=no damage, read-out: Pre-emergence herbicidal activity (percentage phytotoxicity) ALOMY PRE) it was 90%; in experiment [2] (post-emergence, 360 h, Rate 250 g/ha, post-emergence, visual assessment 15 DAA, 100%=total damage, 0%=no damage, read-out: Post-emergence herbicidal activity (percentage phytotoxicity) ECHCG POST) it was 90%; in experiment [2] (pre-emergence, 480 h, Rate 250 g/ha, pre-emergence, visual assessment 20 DAA, 100%=total damage, 0%=no damage, read-out: Pre-emergence herbicidal activity (percentage phytotoxicity) ECHCG PRE) it was 100%; in experiment [3] (post-emergence, 360 h, Rate 250 g/ha, post-emergence, visual assessment 15 DAA, 100%=total damage, 0%=no damage, read-out: Post-emergence herbicidal activity (percentage phytotoxicity) AVEFA POST) it was 100%; in experiment [3] (pre-emergence, 480 h, Rate 250 g/ha, pre-emergence, visual assessment 20 DAA, 100%=total damage, 0%=no damage, read-out: Pre-emergence herbicidal activity (percentage phytotoxicity) AVEFA PRE), 90%. The pest or weed control at 250 g/ha in experiment [4] (post-emergence, 360 h, Rate 250 g/ha, post-emergence, visual assessment 15 DAA, 100%=total damage, 0%=no damage, read-out: Post-emergence herbicidal activity (percentage phytotoxicity) LOLPE POST) amounted to 30%; in experiment [4] (pre-emergence, 480 h, Rate 250 g/ha, pre-emergence, visual assessment 20 DAA, 100%=total damage, 0%=no damage, read-out: Pre-emergence herbicidal activity (percentage phytotoxicity) LOLPE PRE) it was 80%.
